Patent publication US9566347B2, “Peptides and methods using same” (The Trustees of the University of Pennsylvania, priority 2011, dated 2017)
Positions of bridges follow the written chain, without caps; N, C: chain ends. Residues, ends and D or L forms follow the SMILES beside them. No end group written: not given here.

What was measured:
hSIRP-alpha = hSIRP-alpha (Homo sapiens, UniProt P78324); test: Soluble peptide inhibition of hSIRP-alpha binding to polypeptide beads
Excerpt: (§1) Synthesis of the three designs and Scrambled-peptides with or without biotin attached via either an aminohexanoic acid linker (C6) or a PEG linker, enabled functional testing of binding to soluble hSIRP-alpha as well as inhibition of nanobead phagocytosis. […] The 10-aa FG-hairpin was synthesized without attachment of biotin for use as a soluble inhibitor of hSIRP-alpha binding to polypeptide beads. […] While conformational constraints the minimal FG-hairpin combined with the likely lack of a stable structure underscores the utility of at least some backbone flexibility.

soluble hSIRP-alpha = soluble hSIRP-alpha (Homo sapiens, UniProt P78324); test: Binding of polypeptide-coated beads to soluble hSIRP-alpha by flow cytometry
Excerpt: FIG. 4 illustrates binding and phagocytosis inhibition of peptides in relation to human-SIRP-alpha. Affinity of polypeptides coated beads binding to soluble hSIRP-alpha based on flow cytometry. Saturation binding fit gave the indicated dissociation constant, Kd.
as §1

THP-1 cells = test: Phagocytosis assay of peptide-coated opsonized nanobeads in THP-1 cell line; assay type: cell-based; conditions: opsonized beads
Experimental: FIG. 3A illustrates a two color experiment in which nanoparticles (or cells) are mixed and injected into the same mouse after labeling with or without the peptide with distinct fluorescent red dye (PKH26) or far-red (DiD). 50 μl of blood was periodically sampled from the eyes, and flow cytometry analysis of the decay in nanoparticle (or cell) numbers was used to calculate the time-dependent ‘persistence ratio’ in each mouse. Colors were labeled as 1 and 2. FIG. 3B is a graph illustrating an experiment where 160 nm polystyrene beads coated with streptavidin were bound to biotinylated versions of synthetic FG-peptide, or else negative controls of either scrambled peptide or PEG. Beads were opsonized with anti-streptavidin and then injected. n=6 mice. FIG. 3C is a graph illustrating the inverse correlation between the in vivo ratio of beads with or without peptide at 35 min and the inhibition of phagocytosis in vitro at 45 min for 160 nm beads. FIG. 3D is a graph illustrating macrophage SIRPa1 tyrosine phosphorylation upon contact with FG-peptide bound to opsonized beads and phagocytosed by THP-1 cells. From cell lysates, SIRP-alpha was immunoprecipitated and immunoblotted for quantitation of phosphotyrosine per total SIRP-alpha (n=3). Avg.±SEM for all results.
FIG. 4 illustrates binding and phagocytosis inhibition of peptides in relation to human-SIRP-alpha. […]

[1] = Two-color persistence of opsonized nanobeads in circulation of NSG mice; assay type: in vivo; conditions: 160 nm opsonized streptavidin polystyrene beads
Experimental: FIG. 3A illustrates a two color experiment in which nanoparticles (or cells) are mixed and injected into the same mouse after labeling with or without the peptide with distinct fluorescent red dye (PKH26) or far-red (DiD). 50 μl of blood was periodically sampled from the eyes, and flow cytometry analysis of the decay in nanoparticle (or cell) numbers was used to calculate the time-dependent ‘persistence ratio’ in each mouse. Colors were labeled as 1 and 2. FIG. 3B is a graph illustrating an experiment where 160 nm polystyrene beads coated with streptavidin were bound to biotinylated versions of synthetic FG-peptide, or else negative controls of either scrambled peptide or PEG. Beads were opsonized with anti-streptavidin and then injected. n=6 mice. […] Avg.±SEM for all results.

spleen macrophages = conditions: NSG mice, near-infrared particles
Excerpt: To assess whether the particles had been taken up by spleen macrophages in NSG mice, tissue sections were immunostained for macrophages and imaged by fluorescence microscopy.

soluble hSIRP-alpha, sequence (P78324 31-373 limits assumed): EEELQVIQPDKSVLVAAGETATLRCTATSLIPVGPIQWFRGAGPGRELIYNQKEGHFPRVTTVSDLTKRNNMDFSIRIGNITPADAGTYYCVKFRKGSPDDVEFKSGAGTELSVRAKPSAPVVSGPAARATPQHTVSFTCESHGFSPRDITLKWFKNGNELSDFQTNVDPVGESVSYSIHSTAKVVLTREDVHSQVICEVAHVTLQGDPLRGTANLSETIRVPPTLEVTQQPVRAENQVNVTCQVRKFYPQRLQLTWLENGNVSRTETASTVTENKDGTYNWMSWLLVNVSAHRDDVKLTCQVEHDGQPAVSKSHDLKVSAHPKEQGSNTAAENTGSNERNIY
hSIRP-alpha, sequence (P78324 31-373 limits assumed): as above

For `CC(C)C[C@H](NC(=O)[C@H](CCC(=O)O)NC(=O)[C@@H](NC(=O)[C@@H](NC(=O)[C@@H](N)CCC(=O)O)C(C)C)[C@@H](C)O)C(=O)N[C@H](C(=O)N[C@@H](CCCNC(=N)N)C(=O)N[C@@H](CCC(=O)O)C(=O)NCC(=O)N[C@@H](CCC(=O)O)C(=O)O)[C@@H](C)O` [FG-hairpin, EVTELTREGE] (H-EVTELTREGE-OH; N-terminus and C-terminus assumed), which Ki (hSIRP-alpha) is on record?
Its Ki is 100 to 200 nM.

With “CEVTELTREGEC (disulfide 1-12 (inferred)) [FG-SS-peptide, 12-aa peptide with Cys substitution intended to disulfide-stabilize the β-hairpin]” as the compound, how does the “affinity / binding to hSIRP-alpha (in words)” value (soluble hSIRP-alpha; peptide-coated beads, soluble hSIRP-alpha) read?
Its value is “no significant affinity”.

And the “inhibition of nanobead phagocytosis” value (THP-1 cells)?
The value was “no statistically significant inhibition of phagocytosis”.

With GNYTCEVTELTREGETIIELK [FG-peptide] as the compound, how does the circulation of nanoparticles [1] read?
Its circulation of nanoparticles is “prolong the circulation of nanoparticles”.

What about the Kd (soluble hSIRP-alpha; saturation binding fit, biotinylated peptide on streptavidin beads, C6 or PEG linker, read-out: affinity for SIRP-alpha (Kd)) of the same compound?
Its Kd is 110 to 160 nM.

What about the “particle uptake, whole organ imaging” value (spleen macrophages) of the same compound?
The value was “reducing but not eliminating uptake”.
